Measured values: patent US20160375006A1, “USES OF PARALOG-SELECTIVE INHIBITORS OF GSK3 KINASES” (priority 2012, published 2016)
pIC50: −log10 of the molar value. Like-named read-outs stand apart in the source and are kept apart here.

What was measured:
[1] = target: SPHK2 (Homo sapiens, UniProt Q9NRA0)
Description: (§1) This was completed utilizing one of two assays depending on the kinase being examined.
(§2) A solution of IMAP binding reagent (IMAP Screening Express kit; Molecular Devices) (60 μL) was added to each well and incubated for 30 minutes.
(§3) A solution of termination buffer (QuickScout Screening assist MSA; Carna Biosciences) (60 μL) was added to each well. The entire reaction mixture was then applied to a LabChip3000 system (Caliper Life Science) and the product and substrate peptide peaks were separated and quantified.
(§4) The assay utilized was identical to that of the single point inhibitory activity determination (MSA) but run in dose response. […] A solution of termination buffer (QuickScout Screening assist MSA; Carna Biosciences) (60 μL) was added to each well. The entire reaction mixture was then applied to a LabChip3000 system (Caliper Life Science) and the product and substrate peptide peaks were separated and quantified.

[2] = target: QIK (Homo sapiens, UniProt Q9H0K1)
Description: as §1, §2, §3, §4

[3] = target: PDGFRα(T674I) (Homo sapiens, UniProt P16234, T674I)
Description: as §1, §2, §3, §4

[4] = target: MAP2K5_Cascade (Homo sapiens, UniProt Q13163)
Description: as §2, §3, §4

[5] = target: MARK3 (Homo sapiens, UniProt P27448)
Description: as §1, §2, §3, §4

[6] = target: PKD3 (Homo sapiens, UniProt O94806)
Description: as §1, §2, §3

[7] = target: HGK (Homo sapiens, UniProt O95819)
Description: as §2, §3, §4

[8] = target: CDK2/CycE1 (Homo sapiens, UniProt P24941)
Description: as §1, §2, §3, §4

[9] = target: PKCδ (Homo sapiens, UniProt Q05655)
Description: as §1, §2, §3, §4

[10] = target: Erk2 (Homo sapiens, UniProt P28482)
Description: as §1, §2, §3

[11] = target: PRKX (Homo sapiens, UniProt P51817)
Description: as §1, §2, §3, §4

[12] = target: T1, MELK (Homo sapiens, UniProt Q14680); assay: Carna kinase panel; type: biochemical
T1 construct: purchased Carna Biosciences
Description: as §1, §2, §3

[13] = target: KDR (Homo sapiens, UniProt P35968)
Description: as §1, §2, §3, §4

[14] = target: CDK6/CycD3 (Homo sapiens, UniProt Q00534)
Description: as §1, §2, §3, §4

[15] = target: MAP2K3_Cascade (Homo sapiens, UniProt P46734)
Description: as §1, §2, §3, §4

[16] = target: ROCK1 (Homo sapiens, UniProt Q13464)
Description: as §1, §2, §3, §4

[17] = target: SRPK1 (Homo sapiens, UniProt Q96SB4)
Description: as §1, §2, §3, §4

[18] = target: SGK (Homo sapiens, UniProt O00141)
Description: as §1, §2, §3, §4

[19] = target: ALK(L1196M) (Homo sapiens, UniProt Q9UM73, L1196M)
Description: as §1, §2, §3, §4

[20] = target: ABL(E255K) (Homo sapiens, UniProt P00519, E255K)
Description: as §1, §2, §3

[21] = target: CDK3/CycE1 (Homo sapiens, UniProt Q00526)
Description: as §1, §2, §3, §4

[22] = target: MNK2 (Homo sapiens, UniProt Q9HBH9)
Description: as §1, §2, §3

[23] = target: MST3 (Homo sapiens, UniProt Q9Y6E0)
Description: as §1, §2, §3, §4

[24] = target: AKT3 (Homo sapiens, UniProt Q9Y243)
Description: as §1, §2, §3, §4

[25] = target: GSK3β (Homo sapiens, UniProt P49841)
Description: as §1, §2, §3, §4

[26] = target: PKCε (Homo sapiens, UniProt Q02156)
Description: as §1, §2, §3, §4

[27] = target: PKCη (Homo sapiens, UniProt P24723)
Description: as §1, §2, §3, §4

[28] = target: CaMK2α (Homo sapiens, UniProt Q9UQM7)
Description: as §1, §2, §3, §4

[29] = target: FMS (Homo sapiens, UniProt P07333)
Description: as §1, §2, §3, §4

[30] = target: MARK2 (Homo sapiens, UniProt Q7KZI7)
Description: as §1, §2, §3, §4

[31] = target: TRKB (Homo sapiens, UniProt Q16620)
Description: as §1, §2, §3, §4

[32] = target: PHKG2 (Homo sapiens, UniProt P15735)
Description: as §1, §2, §3

[33] = target: CDK9/CycT1 (Homo sapiens, UniProt P50750)
Description: as §1, §2, §3, §4

[34] = target: FES (Homo sapiens, UniProt P07332)
Description: as §1, §2, §3, §4

[35] = target: T2, RSK3 (Homo sapiens, UniProt Q15349); assay: Carna kinase panel; type: biochemical
T2 construct: purchased Carna Biosciences
Description: as §1, §2, §3

[36] = target: MAP2K2_Cascade (Homo sapiens, UniProt P36507)
Description: as §1, §2, §3

[37] = target: ROS (Homo sapiens, UniProt P08922)
Description: as §1, §2, §3, §4

[38] = target: IRAK1 (Homo sapiens, UniProt P51617)
Description: as §1, §2, §3, §4

[39] = target: RSK2 (Homo sapiens, UniProt P51812)
Description: as §1, §2, §3, §4

Sequence of CDK6/CycD3 (Q00534 whole entry): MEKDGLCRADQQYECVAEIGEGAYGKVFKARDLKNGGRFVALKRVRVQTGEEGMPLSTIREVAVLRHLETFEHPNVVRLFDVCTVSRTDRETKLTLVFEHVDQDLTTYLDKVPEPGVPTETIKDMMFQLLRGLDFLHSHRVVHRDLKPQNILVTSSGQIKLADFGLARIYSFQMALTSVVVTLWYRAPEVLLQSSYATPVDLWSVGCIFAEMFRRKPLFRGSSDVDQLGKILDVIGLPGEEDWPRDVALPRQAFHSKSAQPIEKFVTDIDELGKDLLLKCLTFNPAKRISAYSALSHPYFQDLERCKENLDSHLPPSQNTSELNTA
Sequence of CDK6/CycD3 (P30281 whole entry partner): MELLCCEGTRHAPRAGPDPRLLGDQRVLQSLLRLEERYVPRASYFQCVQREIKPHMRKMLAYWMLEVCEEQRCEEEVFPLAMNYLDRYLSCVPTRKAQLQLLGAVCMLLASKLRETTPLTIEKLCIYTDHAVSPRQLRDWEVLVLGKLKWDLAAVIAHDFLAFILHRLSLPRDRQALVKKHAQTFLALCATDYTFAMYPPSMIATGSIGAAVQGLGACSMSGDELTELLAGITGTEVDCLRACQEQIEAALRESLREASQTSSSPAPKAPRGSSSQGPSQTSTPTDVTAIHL
Sequence of GSK3β (P49841 whole entry): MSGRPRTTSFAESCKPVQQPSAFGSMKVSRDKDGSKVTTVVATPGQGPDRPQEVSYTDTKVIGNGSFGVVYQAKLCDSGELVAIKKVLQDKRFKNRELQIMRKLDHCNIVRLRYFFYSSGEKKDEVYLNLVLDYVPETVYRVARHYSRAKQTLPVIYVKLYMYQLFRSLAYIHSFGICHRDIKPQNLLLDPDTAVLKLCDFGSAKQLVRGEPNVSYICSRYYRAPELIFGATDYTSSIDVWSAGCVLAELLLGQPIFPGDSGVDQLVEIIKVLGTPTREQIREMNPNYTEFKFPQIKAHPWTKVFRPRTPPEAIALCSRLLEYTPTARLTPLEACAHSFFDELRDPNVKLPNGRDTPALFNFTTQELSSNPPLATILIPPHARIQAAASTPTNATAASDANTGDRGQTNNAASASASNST
Sequence of SPHK2 (Q9NRA0 whole entry): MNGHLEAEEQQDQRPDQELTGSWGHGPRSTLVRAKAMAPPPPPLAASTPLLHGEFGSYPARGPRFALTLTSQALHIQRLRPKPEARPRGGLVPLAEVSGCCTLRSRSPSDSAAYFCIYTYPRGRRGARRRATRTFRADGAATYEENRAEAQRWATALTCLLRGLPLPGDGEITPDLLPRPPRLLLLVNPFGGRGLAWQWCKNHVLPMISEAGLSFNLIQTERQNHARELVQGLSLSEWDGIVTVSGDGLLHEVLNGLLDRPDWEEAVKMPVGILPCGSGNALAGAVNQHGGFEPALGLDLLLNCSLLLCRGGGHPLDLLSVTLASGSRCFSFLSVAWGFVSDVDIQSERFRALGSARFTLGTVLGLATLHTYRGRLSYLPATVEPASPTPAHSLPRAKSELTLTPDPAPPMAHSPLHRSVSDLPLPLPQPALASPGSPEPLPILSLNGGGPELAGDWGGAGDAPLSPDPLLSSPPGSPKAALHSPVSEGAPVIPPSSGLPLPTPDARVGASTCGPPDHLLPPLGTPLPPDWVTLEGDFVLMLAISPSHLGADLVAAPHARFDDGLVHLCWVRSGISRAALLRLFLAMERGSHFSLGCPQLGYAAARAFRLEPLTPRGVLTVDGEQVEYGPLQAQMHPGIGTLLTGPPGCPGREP
T2 sequence (Q15349 whole entry): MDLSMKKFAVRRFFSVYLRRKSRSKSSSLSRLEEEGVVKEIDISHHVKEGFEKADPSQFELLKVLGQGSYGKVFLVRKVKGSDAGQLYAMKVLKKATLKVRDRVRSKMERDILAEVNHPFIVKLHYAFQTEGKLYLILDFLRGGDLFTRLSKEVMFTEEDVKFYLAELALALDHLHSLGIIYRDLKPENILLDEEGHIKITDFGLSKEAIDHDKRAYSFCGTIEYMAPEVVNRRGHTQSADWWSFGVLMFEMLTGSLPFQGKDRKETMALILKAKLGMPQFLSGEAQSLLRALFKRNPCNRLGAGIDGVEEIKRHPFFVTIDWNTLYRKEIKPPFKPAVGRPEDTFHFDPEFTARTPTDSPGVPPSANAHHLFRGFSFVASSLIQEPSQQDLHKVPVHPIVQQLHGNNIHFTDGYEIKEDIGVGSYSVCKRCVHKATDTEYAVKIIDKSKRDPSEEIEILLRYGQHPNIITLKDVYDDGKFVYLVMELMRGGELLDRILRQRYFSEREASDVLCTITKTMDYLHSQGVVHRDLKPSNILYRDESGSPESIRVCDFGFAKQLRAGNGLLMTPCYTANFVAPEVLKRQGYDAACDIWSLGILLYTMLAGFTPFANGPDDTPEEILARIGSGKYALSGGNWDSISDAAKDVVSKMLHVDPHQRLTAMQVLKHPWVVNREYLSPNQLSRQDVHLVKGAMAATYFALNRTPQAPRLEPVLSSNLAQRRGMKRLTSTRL
Sequence of PKCε (Q02156 whole entry): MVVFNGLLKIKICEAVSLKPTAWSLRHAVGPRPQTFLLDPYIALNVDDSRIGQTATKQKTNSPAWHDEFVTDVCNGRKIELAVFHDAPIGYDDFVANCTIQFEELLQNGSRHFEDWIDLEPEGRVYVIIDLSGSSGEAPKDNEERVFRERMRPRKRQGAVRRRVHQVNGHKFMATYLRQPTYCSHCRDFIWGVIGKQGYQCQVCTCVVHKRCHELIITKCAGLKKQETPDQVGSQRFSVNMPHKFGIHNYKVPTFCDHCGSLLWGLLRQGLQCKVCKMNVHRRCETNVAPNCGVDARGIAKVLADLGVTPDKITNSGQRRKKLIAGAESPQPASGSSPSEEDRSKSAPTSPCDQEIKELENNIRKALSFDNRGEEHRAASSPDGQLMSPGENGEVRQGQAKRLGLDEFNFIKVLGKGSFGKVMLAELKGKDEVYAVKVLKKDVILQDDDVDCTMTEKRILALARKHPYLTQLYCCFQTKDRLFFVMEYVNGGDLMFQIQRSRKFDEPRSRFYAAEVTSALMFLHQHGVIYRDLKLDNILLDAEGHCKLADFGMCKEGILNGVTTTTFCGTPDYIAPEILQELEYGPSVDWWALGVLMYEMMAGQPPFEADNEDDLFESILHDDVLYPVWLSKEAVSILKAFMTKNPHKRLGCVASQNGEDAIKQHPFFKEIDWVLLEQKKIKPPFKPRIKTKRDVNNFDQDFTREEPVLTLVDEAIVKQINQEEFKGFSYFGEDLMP
Sequence of PRKX (P51817 whole entry): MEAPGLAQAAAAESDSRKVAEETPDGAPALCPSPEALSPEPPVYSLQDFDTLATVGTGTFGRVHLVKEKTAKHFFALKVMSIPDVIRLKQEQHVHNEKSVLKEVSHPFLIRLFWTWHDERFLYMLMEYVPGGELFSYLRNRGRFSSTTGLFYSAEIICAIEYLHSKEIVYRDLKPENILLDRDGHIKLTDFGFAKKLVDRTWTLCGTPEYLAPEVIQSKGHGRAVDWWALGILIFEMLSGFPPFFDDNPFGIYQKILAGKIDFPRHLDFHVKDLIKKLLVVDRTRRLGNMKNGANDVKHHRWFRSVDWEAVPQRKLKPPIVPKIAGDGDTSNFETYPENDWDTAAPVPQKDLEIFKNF
Sequence of AKT3 (Q9Y243 whole entry): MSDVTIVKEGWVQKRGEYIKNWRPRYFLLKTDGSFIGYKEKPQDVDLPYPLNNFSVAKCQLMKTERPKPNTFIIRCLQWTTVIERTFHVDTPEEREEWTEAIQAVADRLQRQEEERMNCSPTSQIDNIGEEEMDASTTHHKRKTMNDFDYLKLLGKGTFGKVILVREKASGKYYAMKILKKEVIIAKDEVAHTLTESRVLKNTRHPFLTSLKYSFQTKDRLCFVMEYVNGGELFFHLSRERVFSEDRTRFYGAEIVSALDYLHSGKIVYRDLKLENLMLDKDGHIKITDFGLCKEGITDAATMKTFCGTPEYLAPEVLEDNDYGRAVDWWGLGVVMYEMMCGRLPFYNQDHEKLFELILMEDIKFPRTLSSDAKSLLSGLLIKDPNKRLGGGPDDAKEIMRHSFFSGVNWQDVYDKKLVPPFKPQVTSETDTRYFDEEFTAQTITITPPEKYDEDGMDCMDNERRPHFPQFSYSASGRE
Sequence of MNK2 (Q9HBH9 whole entry): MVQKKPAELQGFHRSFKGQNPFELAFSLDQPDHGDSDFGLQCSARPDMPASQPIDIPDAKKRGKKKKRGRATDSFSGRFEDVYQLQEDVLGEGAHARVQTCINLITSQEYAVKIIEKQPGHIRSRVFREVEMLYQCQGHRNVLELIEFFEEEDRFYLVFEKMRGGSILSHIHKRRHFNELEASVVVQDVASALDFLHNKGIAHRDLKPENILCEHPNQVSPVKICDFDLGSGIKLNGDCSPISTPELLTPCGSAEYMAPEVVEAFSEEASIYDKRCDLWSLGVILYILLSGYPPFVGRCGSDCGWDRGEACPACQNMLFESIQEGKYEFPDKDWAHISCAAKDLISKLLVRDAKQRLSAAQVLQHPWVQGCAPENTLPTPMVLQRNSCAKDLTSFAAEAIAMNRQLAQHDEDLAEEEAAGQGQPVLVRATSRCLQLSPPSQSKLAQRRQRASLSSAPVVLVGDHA
Sequence of MST3 (Q9Y6E0 whole entry): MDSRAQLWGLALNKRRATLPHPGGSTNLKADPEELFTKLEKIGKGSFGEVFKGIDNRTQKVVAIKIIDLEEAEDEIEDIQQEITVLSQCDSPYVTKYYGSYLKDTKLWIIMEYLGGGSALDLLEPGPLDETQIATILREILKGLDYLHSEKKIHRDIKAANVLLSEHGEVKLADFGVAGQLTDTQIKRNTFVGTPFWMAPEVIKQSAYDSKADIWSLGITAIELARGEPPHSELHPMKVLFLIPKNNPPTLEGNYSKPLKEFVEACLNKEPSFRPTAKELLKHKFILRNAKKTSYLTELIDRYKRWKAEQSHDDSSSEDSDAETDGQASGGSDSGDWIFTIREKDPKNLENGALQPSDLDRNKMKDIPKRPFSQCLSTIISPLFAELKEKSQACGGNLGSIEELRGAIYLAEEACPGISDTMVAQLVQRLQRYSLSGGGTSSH

Structure (SMILES): CC[C@@]1(c2ccccc2)C2=C(CC(C)(C)CC2=O)Nc2n[nH]cc21 [BRD0705]
- % Inhibition at 10 μM [1]: −3.8%
- % Inhibition at 10 μM [2]: −6.4%
- % Inhibition at 10 μM [3]: 0.5%
- % Inhibition at 10 μM [4]: −2.3%
- % Inhibition at 10 μM [5]: −5.3%
- % Inhibition at 10 μM [6]: 3.9%
- % Inhibition at 10 μM [7]: 14.9%
- % Inhibition at 10 μM ([8]; CDK2/CycE1): 53.4%
- pIC50 ([8]; read-out: IC50 CDK2/CycE1): 5.03
- % Inhibition at 10 μM [9]: −5.5%
- % Inhibition at 10 μM [10]: 1.6%
- % Inhibition at 10 μM [11]: −4.7%
- % Inhibition at 10 μM [12]: −5.6%
- % Inhibition at 10 μM [13]: −4.8%
- % Inhibition at 10 μM ([14]; CDK6/CycD3): −0.5%
- % Inhibition at 10 μM [15]: 6.7%
- % Inhibition at 10 μM [16]: −2.0%
- % Inhibition at 10 μM [17]: −2.0%
- % Inhibition at 10 μM [18]: −4.4%
- % Inhibition at 10 μM [19]: 0.4%
- % Inhibition at 10 μM [20]: −0.3%
- % Inhibition at 10 μM ([21]; CDK3/CycE1): 52.8%
- pIC50 ([21]; read-out: IC50 CDK3/CycE1): 5.01
- % Inhibition at 10 μM [22]: −5.9%
- % Inhibition at 10 μM [23]: 11.7%
- % Inhibition at 10 μM [24]: −8.3%
- % Inhibition at 10 μM [25]: 96.5%
- pIC50 ([25]; read-out: IC50 GSK3β): 6.31
- % Inhibition at 10 μM [26]: −4.5%
- % Inhibition at 10 μM [27]: −4.0%
- % Inhibition at 10 μM [28]: −8.6%
- % Inhibition at 10 μM [29]: −8.2%
- % Inhibition at 10 μM [30]: −6.2%
- % Inhibition at 10 μM [31]: 4.5%
- % Inhibition at 10 μM [32]: −5.8%
- % Inhibition at 10 μM [33]: 8.4%
- % Inhibition at 10 μM [34]: 0.6%
- % Inhibition at 10 μM [35]: −7.9%
- % Inhibition at 10 μM [36]: 1.3%
- % Inhibition at 10 μM [37]: 31.3%
- % Inhibition at 10 μM [38]: 3.1%
- % Inhibition at 10 μM [39]: 0.4%

Structure (SMILES): CC(C)(C)Cc1[nH]nc2c1[C@](C)(c1ccccc1)C1=C(CC(C)(C)CC1=O)N2 [BRD3731]
- % Inhibition 10 μM ([1]; 10 μM): 15.2%
- % Inhibition 10 μM ([2]; 10 μM): −4.1%
- % Inhibition 10 μM ([3]; 10 μM): 3.1%
- % Inhibition 10 μM ([4]; 10 μM): 6.1%
- % Inhibition 10 μM ([5]; 10 μM): −2.1%
- % Inhibition 10 μM ([6]; 10 μM): 2.6%
- % Inhibition 10 μM ([7]; 10 μM): −3.8%
- pIC50 ([8]; CDK2/CycE1): 5.06
- % Inhibition 10 μM ([8]; CDK2/CycE1, 10 μM): 42.6%
- Fold Selectivity ([8]; IC50 CDK2/CycE1 / IC50 GSK3β): 326.9 fold
- % Inhibition 10 μM ([9]; 10 μM): 10.7%
- % Inhibition 10 μM ([10]; 10 μM): 0.9%
- % Inhibition 10 μM ([11]; 10 μM): −0.2%
- % Inhibition 10 μM ([12]; 10 μM): 39.2%
- % Inhibition 10 μM ([13]; 10 μM): 7.1%
- pIC50 ([14]; CDK6/CycD3): < 5.00
- % Inhibition 10 μM ([14]; CDK6/CycD3, 10 μM): 28.3%
- Fold Selectivity ([14]; IC50 CDK6/CycD3 / IC50 GSK3β): >370 fold
- % Inhibition 10 μM ([15]; 10 μM): −8.8%
- % Inhibition 10 μM ([16]; 10 μM): 0.8%
- % Inhibition 10 μM ([17]; 10 μM): 5.0%
- % Inhibition 10 μM ([18]; 10 μM): −0.4%
- % Inhibition 10 μM ([19]; 10 μM): 3.6%
- % Inhibition 10 μM ([20]; 10 μM): 8.3%
- pIC50 ([21]; CDK3/CycE1): < 5.00
- % Inhibition 10 μM ([21]; CDK3/CycE1, 10 μM): 29.2%
- Fold Selectivity ([21]; IC50 CDK3/CycE1 / IC50 GSK3β): >370 fold
- % Inhibition 10 μM ([22]; 10 μM): −5.6%
- % Inhibition 10 μM ([23]; 10 μM): 7.4%
- % Inhibition 10 μM ([24]; 10 μM): −6.4%
- % Inhibition 10 μM [25]: 100.7%
- pIC50 [25]: 7.57
- % Inhibition 10 μM ([26]; 10 μM): 1.8%
- % Inhibition 10 μM ([27]; 10 μM): −5.8%
- % Inhibition 10 μM ([28]; 10 μM): −4.3%
- % Inhibition 10 μM ([29]; 10 μM): 5.2%
- % Inhibition 10 μM ([30]; 10 μM): 16.5%
- % Inhibition 10 μM ([31]; 10 μM): 11.0%
- % Inhibition 10 μM ([32]; 10 μM): 6.0%
- % Inhibition 10 μM ([33]; 10 μM): 11.3%
- % Inhibition 10 μM ([34]; 10 μM): 0.4%
- % Inhibition 10 μM ([35]; 10 μM): 35.5%
- % Inhibition 10 μM ([36]; 10 μM): −0.4%
- % Inhibition 10 μM ([37]; 10 μM): 0.9%
- % Inhibition 10 μM ([38]; 10 μM): 1.2%
- % Inhibition 10 μM ([39]; 10 μM): 42.8%
